Measured values taken from patent US6844352B2, “1′-[4-[1-(4-fluorophenyl)-1H-indole-3-yl]-1-butyl]-spiro[isobenzofuran-1(3H),4′-piperidine] hydrohalogenides” (H. Lundbeck A/S, priority 1997, dated 2005).

Tests used:
[1] = tested on: sigma receptor; conditions: cited from earlier work
[2] = Bioavailability study after multiple oral administration in Beagle dogs (serum levels by HPLC); format: in vivo; conditions: both sexes, dog, area under serum concentration versus time curve 0-24 hours after dosing on day 7, 10 mg/kg/day (as free base) orally in gelatine capsules for 7 days, read-out: AUC0-24.7 Mean
Experimental: After multiple administration in Beagle dogs, the bioavailability of the salts of 1′-[4-[1-(4-fluorophenyl)-1H-indole-3-yl]-1-butyl]-spiro[isobenzofuran-1(3H),4′-piperidine] was investigated as described in the following study:
Two groups, each consisting of four Beagle dogs (2 males and 2 females) were used in the study.
The dogs in the individual groups were given single daily doses of 10 mg/kg/day (calculated as free base) of the fumarate and the hydrochloride of 1′-[4-[1-(4-fluorophenyl)-1H-indole-3-yl]-1-butyl]-spiro[isobenzofuran-1(3H),4′-piperidine] for seven days.
Blood samples for serum preparation were drawn from the test animals at specific nominal time points before and after dosing on each day and analyzed using HPLC. […]
Single doses of the different salts corresponding to 10.0 mg (˜21997 nmol ) of 1′-[4-[1-(4-fluorophenyl)-1H-indole-3-yl]-1-butyl]-spiro[isobenzofuran-1(3H),4′-piperidine] per kg body weight were accurately weighed into gelatine capsules. The calculated amounts of test compound for each dog were based on body weights measured at study start. […]
The exact blood sampling times for each dog relative to the first dose were recorded. […]
The serum samples obtained were analysed for content of 1′-[4-[1-(4-fluorophenyl)-1H-indole-3-yl]-1-butyl]-spiro[isobenzofuran-1(3H),4′-piperidine] by a pseudo-normal phase HPLC-method after liquid-liquid extraction. […]

[3] = Aqueous solubility; format: physicochemical
[4] = Bioavailability experiments in dogs; format: in vivo
[5] = Bioavailability experiments in rats; format: in vivo
[6] = tested on: sigma receptors; conditions: cited from earlier work
[7] = tested on: rats; conditions: cited from earlier work

SMILES: C[C@@H]1CN(CCCn2c3ccccc3c3ccccc32)C[C@H](C)N1 [rimcazole]
- clinical effect in the treatment of psychoses [1]: clinically shows effect

SMILES: Fc1ccc(-n2cc(CCCCN3CCC4(CC3)OCc3ccccc34)c3ccccc32)cc1.O=C(O)/C=C/C(=O)O [Fumarate, 1′-[4-[1-(4-fluorophenyl)-1H-indole-3-yl]-1-butyl]-spiro[isobenzofuran-1(3H),4′-piperidine], fumarate]
- AUC(0-t) [2]: 4.02 µM·h
- aqueous solubility [3]: very low
- bioavailability [4]: limited bioavailablity
- bioavailability [5]: limited bioavailablity

SMILES: Cl.Fc1ccc(-n2cc(CCCCN3CCC4(CC3)OCc3ccccc34)c3ccccc32)cc1 [Hydrochloride, 1′-[4-[1-(4-fluorophenyl)-1H-indole-3-yl]-1-butyl]-spiro[isobenzofuran-1(3H),4′-piperidine], hydrochloride]
- AUC(0-t) [2]: 12 µM·h
- water solubility compared to the fumarate [3]: improved water solubility

SMILES: Fc1ccc(-n2cc(CCCCN3CCC4(CC3)OCc3ccccc34)c3ccccc32)cc1 [free base, 1′-[4-[1-(4-fluorophenyl)-1H-indole-3-yl]-1-butyl]-spiro[isobenzofuran-1(3H),4′-piperidine]]
- sigma ligand potency and selectivity [6]: potent and selective sigma ligand
- aqueous solubility [3]: very low
- anxiolytic potential in black/white exploration test [7]: active over a large dose range
